Legend:
Hepatotoxicity [1] = experiment: Literature-mined compound from Fourches et al multi-species drug-induced liver injury (DILI) dataset, effect in humans; details: human
Hepatotoxicity [2] = experiment: Literature-mined compound from Fourches et al multi-species drug-induced liver injury (DILI) dataset, effect in rodents; details: rodentia
Hepatotoxicity [3] = experiment: Literature-mined compound from Fourches et al multi-species drug-induced liver injury (DILI) dataset, effect in non-rodents

**Q.** DALTEPARIN SODIUM was tested. Which Hepatotoxicity (Hepatotoxicity [1]) did it give?
**A.** no drug-induced liver injury reported

**Q.** And the Hepatotoxicity (Hepatotoxicity [2])?
**A.** drug-induced liver injury reported

**Q.** And the Hepatotoxicity (Hepatotoxicity [3])?
**A.** no drug-induced liver injury reported

**Q.** `CN(CC(=O)O)C(=N)N` [CREATINE] was tested. Which Hepatotoxicity (Hepatotoxicity [1]) did it give?
**A.** no drug-induced liver injury reported

**Q.** And the Hepatotoxicity (Hepatotoxicity [2])?
**A.** drug-induced liver injury reported

**Q.** What about the Hepatotoxicity (Hepatotoxicity [3]) of the same compound?
**A.** no drug-induced liver injury reported

**Q.** What does the source list for `CC(C)C[C@H](NC(=O)[C@H](Cc1ccccc1)NC(=O)c1cnccn1)B(O)O` [BORTEZOMIB]?
**A.** Hepatotoxicity (Hepatotoxicity [1]; Liver): drug-induced liver injury reported; Hepatotoxicity (Hepatotoxicity [2]; Liver): drug-induced liver injury reported; Hepatotoxicity (Hepatotoxicity [3]; Liver): no drug-induced liver injury reported

**Q.** Which results are given for `CCN(CC)CCNC(=O)c1cc(Cl)c(N)cc1OC` [METOCLOPRAMIDE]?
**A.** Hepatotoxicity (Hepatotoxicity [1]): drug-induced liver injury reported; Hepatotoxicity (Hepatotoxicity [2]): drug-induced liver injury reported; Hepatotoxicity (Hepatotoxicity [3]): no drug-induced liver injury reported

**Q.** What does the source list for `C=C(C)[C@@H]1CCC(C)=C[C@H]1c1c(O)cc(CCCCC)cc1O` [CANNABIDIOL]?
**A.** Hepatotoxicity (Hepatotoxicity [1]): drug-induced liver injury reported; Hepatotoxicity (Hepatotoxicity [2]): drug-induced liver injury reported; Hepatotoxicity (Hepatotoxicity [3]): no drug-induced liver injury reported

**Q.** For `CCCCCCCCCCCCCCCCCC(=O)O.CC[C@H]1OC(=O)[C@H](C)[C@@H](O[C@H]2C[C@@](C)(OC)[C@@H](O)[C@H](C)O2)[C@H](C)[C@@H](O[C@@H]2O[C@H](C)C[C@H](N(C)C)[C@H]2O)[C@](C)(O)C[C@@H](C)C(=O)[C@H](C)[C@@H](O)[C@]1(C)O` [ERYTHROMYCIN STEARATE], which Hepatotoxicity (Hepatotoxicity [1]) is on record?
**A.** drug-induced liver injury reported

**Q.** What about the Hepatotoxicity (Hepatotoxicity [2]) of the same compound?
**A.** no drug-induced liver injury reported

**Q.** What about the Hepatotoxicity (Hepatotoxicity [3]) of the same compound?
**A.** no drug-induced liver injury reported

**Q.** With `CNC(=O)OCc1cccc(COC(=O)NC)n1` [PYRICARBATE] as the compound, how does the Hepatotoxicity (Hepatotoxicity [1]) read?
**A.** drug-induced liver injury reported

**Q.** And the Hepatotoxicity (Hepatotoxicity [2])?
**A.** drug-induced liver injury reported

**Q.** What about the Hepatotoxicity (Hepatotoxicity [3]) of the same compound?
**A.** no drug-induced liver injury reported

**Q.** How did the Hepatotoxicity (Hepatotoxicity [1]) turn out when `CN(C/C=C/C#CC(C)(C)C)Cc1cccc2ccccc12` [TERBINAFINE] was run?
**A.** drug-induced liver injury reported

**Q.** What about the Hepatotoxicity (Hepatotoxicity [2]) of the same compound?
**A.** drug-induced liver injury reported

**Q.** What about the Hepatotoxicity (Hepatotoxicity [3]) of the same compound?
**A.** no drug-induced liver injury reported

**Q.** How did the Hepatotoxicity (Hepatotoxicity [1]) turn out when `CC#CCC(C)[C@H](O)/C=C/[C@@H]1[C@H]2C/C(=C/CCCC(=O)O)C[C@H]2C[C@H]1O` (stereo partly specified) [ILOPROST] was run?
**A.** no drug-induced liver injury reported

**Q.** And the Hepatotoxicity (Hepatotoxicity [2])?
**A.** drug-induced liver injury reported

**Q.** And the Hepatotoxicity (Hepatotoxicity [3])?
**A.** no drug-induced liver injury reported

**Q.** How did the Hepatotoxicity (Hepatotoxicity [1]; Liver) turn out when `CC(=O)[O][Zn][O]C(C)=O` [ZINC ACETATE ANHYDROUS] was run?
**A.** no drug-induced liver injury reported

**Q.** What about the Hepatotoxicity (Hepatotoxicity [2]; Liver) of the same compound?
**A.** drug-induced liver injury reported

**Q.** And the Hepatotoxicity (Hepatotoxicity [3]; Liver)?
**A.** no drug-induced liver injury reported

**Q.** For `CCCCOCN(C(=O)CCl)c1c(CC)cccc1CC` [BUTACHLOR], which Hepatotoxicity (Hepatotoxicity [1]) is on record?
**A.** no drug-induced liver injury reported

**Q.** What about the Hepatotoxicity (Hepatotoxicity [2]) of the same compound?
**A.** drug-induced liver injury reported

**Q.** What about the Hepatotoxicity (Hepatotoxicity [3]) of the same compound?
**A.** no drug-induced liver injury reported

**Q.** How did the Hepatotoxicity (Hepatotoxicity [1]) turn out when `CCOC(=O)[C@H](CCc1ccccc1)N[C@@H](C)C(=O)N1[C@H](C(=O)O)C[C@H]2CCCC[C@@H]21` [TRANDOLAPRIL] was run?
**A.** drug-induced liver injury reported

**Q.** And the Hepatotoxicity (Hepatotoxicity [2])?
**A.** no drug-induced liver injury reported

**Q.** What about the Hepatotoxicity (Hepatotoxicity [3]) of the same compound?
**A.** no drug-induced liver injury reported

**Q.** `O=c1[nH]c2ccccc2n1C1CCN(CCCC(c2ccc(F)cc2)c2ccc(F)cc2)CC1` [PIMOZIDE] was tested. Which Hepatotoxicity (Hepatotoxicity [1]) did it give?
**A.** drug-induced liver injury reported

**Q.** And the Hepatotoxicity (Hepatotoxicity [2])?
**A.** no drug-induced liver injury reported

**Q.** What about the Hepatotoxicity (Hepatotoxicity [3]) of the same compound?
**A.** no drug-induced liver injury reported

**Q.** Which results are given for `CC1(C)CCC2=C(O1)c1ccccc1C(=O)C2=O` [LAPACHONE]?
**A.** Hepatotoxicity (Hepatotoxicity [1]): drug-induced liver injury reported; Hepatotoxicity (Hepatotoxicity [2]): no drug-induced liver injury reported; Hepatotoxicity (Hepatotoxicity [3]): no drug-induced liver injury reported

**Q.** With `CCO[C@@H](Cc1ccc(OCCN2c3ccccc3Oc3ccccc32)cc1)C(=O)O` [RAGAGLITAZAR] as the compound, how does the Hepatotoxicity (Hepatotoxicity [1]) read?
**A.** no drug-induced liver injury reported

**Q.** What about the Hepatotoxicity (Hepatotoxicity [2]) of the same compound?
**A.** drug-induced liver injury reported

**Q.** And the Hepatotoxicity (Hepatotoxicity [3])?
**A.** no drug-induced liver injury reported

**Q.** With `COC(=O)[C@H]1[C@@H](OC(=O)c2ccccc2)C[C@@H]2CC[C@H]1N2C` [COCAINE] as the compound, how does the Hepatotoxicity (Hepatotoxicity [1]) read?
**A.** drug-induced liver injury reported

**Q.** And the Hepatotoxicity (Hepatotoxicity [2])?
**A.** drug-induced liver injury reported

**Q.** What about the Hepatotoxicity (Hepatotoxicity [3]) of the same compound?
**A.** no drug-induced liver injury reported

**Q.** With `O[C@H]1[C@H](O)[C@@H](O)[C@H](O)[C@@H](O)[C@H]1O` [INOSITOL] as the compound, how does the Hepatotoxicity (Hepatotoxicity [1]) read?
**A.** drug-induced liver injury reported

**Q.** And the Hepatotoxicity (Hepatotoxicity [2])?
**A.** no drug-induced liver injury reported

**Q.** And the Hepatotoxicity (Hepatotoxicity [3])?
**A.** no drug-induced liver injury reported

**Q.** Which Hepatotoxicity (Hepatotoxicity [1]) does the source give for `Cc1cnc(NCCCN(C)C)c2c1[nH]c1ccc3cc(O)ccc3c12` [INTOPLICINE] here?
**A.** drug-induced liver injury reported

**Q.** What about the Hepatotoxicity (Hepatotoxicity [2]) of the same compound?
**A.** no drug-induced liver injury reported

**Q.** What about the Hepatotoxicity (Hepatotoxicity [3]) of the same compound?
**A.** no drug-induced liver injury reported

**Q.** Which results are given for `CCN(CC)C(=O)c1cccc(C)c1` [DIETHYLTOLUAMIDE]?
**A.** Hepatotoxicity (Hepatotoxicity [1]): no drug-induced liver injury reported; Hepatotoxicity (Hepatotoxicity [2]): drug-induced liver injury reported; Hepatotoxicity (Hepatotoxicity [3]): no drug-induced liver injury reported

**Q.** What does the source list for `CC(COc1ccccc1)NC(C)C(O)c1ccc(O)cc1` (stereo unspecified) [ISOXSUPRINE]?
**A.** Hepatotoxicity (Hepatotoxicity [1]): no drug-induced liver injury reported; Hepatotoxicity (Hepatotoxicity [2]): drug-induced liver injury reported; Hepatotoxicity (Hepatotoxicity [3]): no drug-induced liver injury reported

**Q.** Which Hepatotoxicity (Hepatotoxicity [1]) does the source give for `CCN1CCN(C(=O)N[C@@H](C(=O)N[C@@H]2C(=O)N3[C@@H]2SC(C)(C)[C@@H]3C(=O)O)c2ccccc2)C(=O)C1=O` [PIPERACILLIN] here?
**A.** no drug-induced liver injury reported

**Q.** What about the Hepatotoxicity (Hepatotoxicity [2]) of the same compound?
**A.** drug-induced liver injury reported

**Q.** And the Hepatotoxicity (Hepatotoxicity [3])?
**A.** drug-induced liver injury reported

**Q.** What does the source list for `CC(C)c1ccc(C(=O)NC(=N)N)cc1S(C)(=O)=O` [CARIPORIDE]?
**A.** Hepatotoxicity (Hepatotoxicity [1]): no drug-induced liver injury reported; Hepatotoxicity (Hepatotoxicity [2]): drug-induced liver injury reported; Hepatotoxicity (Hepatotoxicity [3]): no drug-induced liver injury reported

**Q.** Which Hepatotoxicity (Hepatotoxicity [1]) does the source give for `O=C1CCCC(=O)C1C(=O)c1ccc(C(F)(F)F)cc1[N+](=O)[O-]` [NITISINONE] here?
**A.** no drug-induced liver injury reported

**Q.** What about the Hepatotoxicity (Hepatotoxicity [2]) of the same compound?
**A.** drug-induced liver injury reported

**Q.** What about the Hepatotoxicity (Hepatotoxicity [3]) of the same compound?
**A.** drug-induced liver injury reported

**Q.** For `C[C@H](CCC(=O)O)[C@H]1CC[C@H]2[C@@H]3[C@@H](O)C[C@@H]4C[C@H](O)CC[C@]4(C)[C@H]3CC[C@]12C` [URSODIOL], which Hepatotoxicity (Hepatotoxicity [1]) is on record?
**A.** drug-induced liver injury reported

**Q.** What about the Hepatotoxicity (Hepatotoxicity [2]) of the same compound?
**A.** drug-induced liver injury reported

**Q.** And the Hepatotoxicity (Hepatotoxicity [3])?
**A.** drug-induced liver injury reported

**Q.** `O=[N+]([O-])OCC(CO[N+](=O)[O-])O[N+](=O)[O-]` [NITROGLYCERIN] was tested. Which Hepatotoxicity (Hepatotoxicity [1]) did it give?
**A.** drug-induced liver injury reported

**Q.** And the Hepatotoxicity (Hepatotoxicity [2])?
**A.** drug-induced liver injury reported

**Q.** What about the Hepatotoxicity (Hepatotoxicity [3]) of the same compound?
**A.** no drug-induced liver injury reported

**Q.** Which Hepatotoxicity (Hepatotoxicity [1]) does the source give for `CN1C(=O)CN=C(c2ccccc2F)c2cc([N+](=O)[O-])ccc21` [FLUNITRAZEPAM] here?
**A.** no drug-induced liver injury reported

**Q.** And the Hepatotoxicity (Hepatotoxicity [2])?
**A.** no drug-induced liver injury reported

**Q.** And the Hepatotoxicity (Hepatotoxicity [3])?
**A.** drug-induced liver injury reported

**Q.** How did the Hepatotoxicity (Hepatotoxicity [1]) turn out when `CC(C)N(CCC(C(N)=O)(c1ccccc1)c1ccccn1)C(C)C` (stereo unspecified) [DISOPYRAMIDE] was run?
**A.** drug-induced liver injury reported

**Q.** And the Hepatotoxicity (Hepatotoxicity [2])?
**A.** no drug-induced liver injury reported

**Q.** And the Hepatotoxicity (Hepatotoxicity [3])?
**A.** no drug-induced liver injury reported
